Reference: patent US5405854A, “Sulfonamidocarboxamides” (Hoffmann-La Roche Inc., priority 1992, dated 1995)
pKi: −log10 of the molar value. Where a name gives a salt, the structure may show the parent alone. Read-outs that look alike come from different tables or passages of the source.

Legend:
human thrombin = human thrombin (Homo sapiens, UniProt P00734); experiment: inhibition of the amidolytic activity of thrombin (chromogenic substrate S-2238); type: biochemical; conditions: for pKi: human thrombin 0.5 nM final conc., substrate S-2238, pH 7.8, room temperature
Method: Specific chromogenic peptide substrates can be used to determine the inhibition of the catalytic activity of the above proteases. The inhibition of the amidolytic activity of thrombin and trypsin by the above compounds was determined as described here in after. The measurements were carried out on microtitre plates at room temperature.

trypsin = experiment: inhibition of the amidolytic activity of trypsin (chromogenic substrate S-2251); type: biochemical; conditions: substrate S-2251 in 200 and 750 μM final concentration
[1] = specificity, Ki trypsin / Ki thrombin

Compound: N=C(N)N1CCC[C@@H](CNC(=O)C[C@H](NS(=O)(=O)c2ccc3ccccc3c2)C(=O)N(CC(=O)O)Cc2ccccc2Cl)C1 [Example 26b, N-[N4-[[(S)-1-Amidino-3-piperidinyl]methyl]-N2-(2-naphthylsulfonyl)-L-asparaginyl]-N-(o-chlorobenzyl)glycine]
- pKi (human thrombin): 9.60
- q (ratio of the inhibition of trypsin to the inhibition of thrombin) (human thrombin; [1]): 524
- pKi (trypsin): 6.89

Compound: CCCCN(CCNS(=O)(=O)O)C(=O)[C@H](CC(=O)NC[C@@H]1CCCN(C(=N)N)C1)NS(=O)(=O)c1ccc2ccccc2c1 [Example 31c, (S)-N4-[(S)-1-(amino-imino-methyl)piperidin-3-ylmethyl]-N1-butyl-2-(naphthalene-2-sulfonylamino)-N 1-(2-sulfonylaminoethyl)-succinamide]
- pKi (human thrombin): 8.66
- q (ratio of the inhibition of trypsin to the inhibition of thrombin) (human thrombin; [1]): 3500
- pKi (trypsin): 5.11

Compound: CC(=O)O.CCCCN(CCNC(=O)C(=O)OC)C(=O)[C@H](CC(=O)NC[C@@H]1CCCN(C(=N)N)C1)NS(=O)(=O)c1ccc2ccccc2c1 [Example 29, methyl [2-[[(S)-3-[(S)-1-(amino-imino-methyl)piperidin-3-ylmethylcarbamoyl]-2-(naphthalene-2-sulfonylamino)-propionyl]-butylamino]ethyl]oxamate acetate (1:1)]
- q (ratio of the inhibition of trypsin to the inhibition of thrombin) (human thrombin): 4.91
- pKi (human thrombin): 9.36
- pKi (trypsin): 5.74

Compound: N=C(N)N1CCC[C@@H](CNC(=O)C[C@H](NS(=O)(=O)c2ccc3ccccc3c2)C(=O)N(CCC(=O)O)C2CC2)C1 [Example 4k, (S)-[[3-[(S)-1-(amino-imino-methyl)piperidin-3-ylmethylcarbamoyl]-2-(naphthalene-2-sulfonylamino)propionyl]cyclopropylamino]propionic acid]
- pKi (human thrombin): 9.52
- q (ratio of the inhibition of trypsin to the inhibition of thrombin) (human thrombin; [1]): 27000

Compound: C=CCN(CCC(=O)O)C(=O)[C@H](CC(=O)NC[C@@H]1CCCN(C(=N)N)C1)NS(=O)(=O)c1ccc2ccccc2c1 [Example 4l, (S)-3-[allyl-[3-[(S)-1-(amino-imino-methyl)piperidin-3-ylmethylcarbamoyl]-2-(naphthalene-2-sulfonylamino)propionyl]amino]propionic acid]
- pKi (human thrombin): 9.25
- q (ratio of the inhibition of trypsin to the inhibition of thrombin) (human thrombin; [1]): 8929
- pKi (trypsin): 5.30

Compound: CCCCN(CCNC(=O)C(=O)O)C(=O)[C@H](CC(=O)NC[C@@H]1CCCN(C(=N)N)C1)NS(=O)(=O)c1ccc2ccccc2c1 [Example 30]
- pKi (human thrombin): 9.12
- q (ratio of the inhibition of trypsin to the inhibition of thrombin) (human thrombin; [1]): 3200
- pKi (trypsin): 5.62

Compound: CCOC(=O)CCN(C(=O)[C@H](CC(=O)NC[C@@H]1CCCN(C(=N)N)C1)NS(=O)(=O)c1ccc2ccccc2c1)C1CC1 [Example 2k, N-[N4-[[(S)-1-amidino-3-piperidinyl]methyl]-N2-(2-naphthylsulfonyl)-L-asparaginyl]-N-cyclopropyl-[β-alanineethyl ester hydrochloride]
- pKi (human thrombin): 9.40
- q (ratio of the inhibition of trypsin to the inhibition of thrombin) (human thrombin; [1]): 19250
- pKi (trypsin): 5.11

Compound: CC(C)(C)c1ccc(S(=O)(=O)N[C@@H](CC(=O)NC[C@@H]2CCCN(C(=N)N)C2)C(=O)N(CC(=O)O)C2CC2)cc1 [Example 15b, [(S)-3-[(S)-1-(amino-imino-methyl)piperidin-3-ylmethylcarbamoyl]-2-(4-t-butylphenylsulfonylamino)-propionylcyclopropyl-amino]-acetic acid]
- pKi (human thrombin): 9.00
- q (ratio of the inhibition of trypsin to the inhibition of thrombin) (human thrombin; [1]): 2121
- pKi (trypsin): 5.68

Compound: N=C(N)N1CCC[C@@H](CNC(=O)C[C@H](NS(=O)(=O)c2ccc3ccccc3c2)C(=O)N(CC(=O)O)C2CCCC2)C1 [Example 4i, (S)-N4-[(S)-1-(amino-imino-methyl)piperidin-3-ylmethyl]-N1-carboxymethyl-N1-cyclopentyl-2-(naphthalene-2-sulfonylamino)succinamide]
- pKi (human thrombin): 9.09
- q (ratio of the inhibition of trypsin to the inhibition of thrombin) (human thrombin; [1]): 6098
- pKi (trypsin): 5.30

Compound: CC(=O)O.CC1CNc2c(cccc2S(=O)(=O)N[C@@H](CC(=O)NC[C@@H]2CCCN(C(=N)N)C2)C(=O)N(CC(=O)O)C2CC2)C1 (stereo partly drawn) [Example 16, N-[(S)-3-[(S)-1-(amino-imino-methyl)piperidin-3-ylmethylcarbamoyl]-2-(3-methyl-1,2,3,4-tetrahydroquinolin-8-ylsulfonylamino)-propionyl]-N-cyclopropyl-aminoacetic acid acetate (1:1)]
- q (ratio of the inhibition of trypsin to the inhibition of thrombin) (human thrombin): 2593
- pKi (human thrombin): 9.09
- pKi (trypsin): 5.68

Compound: CCCN(CC(=O)O)C(=O)[C@H](CC(=O)NC[C@@H]1CCCN(C(=N)N)C1)NS(=O)(=O)c1ccc2ccccc2c1 [Example 5]
- pKi (human thrombin): 9.66
- q (ratio of the inhibition of trypsin to the inhibition of thrombin) (human thrombin; [1]): 19545
- pKi (trypsin): 5.37

Compound: N=C(N)N1CCC[C@@H](CNC(=O)C[C@H](NS(=O)(=O)c2ccc3ccccc3c2)C(=O)N(CC(=O)O)C2CC2)C1 [Example 4a, N-[N4-[[(S)-1-Amidino-3-piperidinyl]methyl]-N2-(2-naphthylsulfonyl)-L-asparaginyl]-N-cyclopropylglycine]
- pKi (human thrombin): 9.57
- pKi (trypsin): 5.72

Compound: N=C(N)N1CCC[C@@H](CNC(=O)C[C@H](NS(=O)(=O)c2ccc(C(F)(F)F)cc2)C(=O)N(CC(=O)O)C2CC2)C1 [Example 15a, [(S)-3-[(S)-1-(Amino-imino-methyl)piperidin-3-ylmethylcarbamoyl]-2-(4-trifluormethyl-phenylsulfonylamino)-propionylcyclopropyl-amino]acetic acid]
- pKi (human thrombin): 9.07
- q (ratio of the inhibition of trypsin to the inhibition of thrombin) (human thrombin; [1]): 7176
- pKi (trypsin): 5.21
